Source: patent US20090270391A1, “THIENOPYRIDINE DERIVATIVE, OR QUINOLINE DERIVATIVE, OR QUINAZOLINE DERIVATIVE, HAVING c-MET AUTOPHOSPHORYLATION INHIBITING POTENCY” (Kirin Pharma Kabushiki Kaisha, priority 2005, published 2009)
pIC50: −log10 of the molar value.

Tests used:
c-Met [1] = target: T1, c-Met (Homo sapiens, UniProt P08581); test: Measurement (2) of inhibitory activity against c-Met autophosphorylation using ELISA method (MKN45 cells); format: cell-based; set-up: endogenous in cells; host or cells: MKN45; settings: c-Met phosphorylation in MKN45 cells, no HGF
Description: Human gastric cancer cell line MKN45 (available from Riken) was cultured in an RPMI 1640 medium containing 10% fetal calf serum (purchased from GIBCO BRL) within a 5% carbon dioxide incubator until 50 to 90% confluent. The harvested cells were inoculated into wells, containing an RPMI medium containing 0.1% fetal calf serum, in a 96-well flat-bottom plate in an amount of 2×10^4 per well, followed by cultivation at 37° C. overnight. The medium was then replaced by a fresh RPMI medium containing 0.1% fetal calf serum. The test compound dissolved in dimethyl sulfoxide was added to each well, and the cultivation was continued at 37° C. for additional one hr. The medium was removed, the cells were washed with phosphate buffered physiological saline (pH 7.4), and 50 μl of a solubilization buffer (20 mM HEPES (pH 7.4), 150 mM NaCl, 0.2%/0 Triton X-100, 100, 10% glycerol, 5 mM sodium orthovanadylate, 5 mM disodium ethylenediaminetetraacetate, and 2 mM Na4P2O7) was then added thereto. The mixture was shaken at 4° C. for 2 hr to prepare a cell extract.
Separately, phosphate buffered physiological saline (50 μl, pH 7.4) containing 5 μg/ml anti-phospho-tyrosine antibody (PY20; purchased from Transduction Laboratories) was added to a microplate for ELISA (Maxisorp; purchased from NUNC), followed by standing at 4° C. overnight to form a solid phase. After washing of the plate, 300 μl of a blocking solution was added, followed by standing at room temperature for 2 hr to perform blocking. After washing, the whole quantity of the cell extract was transferred, and the plate was then allowed to stand at 4° C. overnight. After washing, an anti-HGF receptor antibody (h-Met (C-12), purchased from Santa Cruz Biotechnology) was allowed to react at room temperature for one hr, and, after washing, a peroxidase-labeled anti-rabbit Ig antibody (purchased from Amersham) was allowed to react at room temperature for one hr. After washing, a chromophoric substrate for peroxidase (purchased from Sumitomo Bakelite Co., Ltd.) was added thereto to initiate a reaction. After a suitable level of color development, a reaction termination solution was added to stop the reaction, and the absorbance at 450 nm was measured with a microplate reader. The c-Met phosphorylation activity for each well was determined by presuming the absorbance without the addition of the test compound to be 100% c-Met phosphorylation activity and the absorbance with the addition of a largely excessive amount of positive control to be 0% c-Met phosphorylation activity. The concentration of the test compound was varied on several levels, the inhibition rate of c-Met-phosphorylation was determined for each case, and the concentration of the test compound necessary for inhibiting 50% of c-Met phosphorylation (IC50) was calculated.
Target sequence in this assay (P08581 25-1390): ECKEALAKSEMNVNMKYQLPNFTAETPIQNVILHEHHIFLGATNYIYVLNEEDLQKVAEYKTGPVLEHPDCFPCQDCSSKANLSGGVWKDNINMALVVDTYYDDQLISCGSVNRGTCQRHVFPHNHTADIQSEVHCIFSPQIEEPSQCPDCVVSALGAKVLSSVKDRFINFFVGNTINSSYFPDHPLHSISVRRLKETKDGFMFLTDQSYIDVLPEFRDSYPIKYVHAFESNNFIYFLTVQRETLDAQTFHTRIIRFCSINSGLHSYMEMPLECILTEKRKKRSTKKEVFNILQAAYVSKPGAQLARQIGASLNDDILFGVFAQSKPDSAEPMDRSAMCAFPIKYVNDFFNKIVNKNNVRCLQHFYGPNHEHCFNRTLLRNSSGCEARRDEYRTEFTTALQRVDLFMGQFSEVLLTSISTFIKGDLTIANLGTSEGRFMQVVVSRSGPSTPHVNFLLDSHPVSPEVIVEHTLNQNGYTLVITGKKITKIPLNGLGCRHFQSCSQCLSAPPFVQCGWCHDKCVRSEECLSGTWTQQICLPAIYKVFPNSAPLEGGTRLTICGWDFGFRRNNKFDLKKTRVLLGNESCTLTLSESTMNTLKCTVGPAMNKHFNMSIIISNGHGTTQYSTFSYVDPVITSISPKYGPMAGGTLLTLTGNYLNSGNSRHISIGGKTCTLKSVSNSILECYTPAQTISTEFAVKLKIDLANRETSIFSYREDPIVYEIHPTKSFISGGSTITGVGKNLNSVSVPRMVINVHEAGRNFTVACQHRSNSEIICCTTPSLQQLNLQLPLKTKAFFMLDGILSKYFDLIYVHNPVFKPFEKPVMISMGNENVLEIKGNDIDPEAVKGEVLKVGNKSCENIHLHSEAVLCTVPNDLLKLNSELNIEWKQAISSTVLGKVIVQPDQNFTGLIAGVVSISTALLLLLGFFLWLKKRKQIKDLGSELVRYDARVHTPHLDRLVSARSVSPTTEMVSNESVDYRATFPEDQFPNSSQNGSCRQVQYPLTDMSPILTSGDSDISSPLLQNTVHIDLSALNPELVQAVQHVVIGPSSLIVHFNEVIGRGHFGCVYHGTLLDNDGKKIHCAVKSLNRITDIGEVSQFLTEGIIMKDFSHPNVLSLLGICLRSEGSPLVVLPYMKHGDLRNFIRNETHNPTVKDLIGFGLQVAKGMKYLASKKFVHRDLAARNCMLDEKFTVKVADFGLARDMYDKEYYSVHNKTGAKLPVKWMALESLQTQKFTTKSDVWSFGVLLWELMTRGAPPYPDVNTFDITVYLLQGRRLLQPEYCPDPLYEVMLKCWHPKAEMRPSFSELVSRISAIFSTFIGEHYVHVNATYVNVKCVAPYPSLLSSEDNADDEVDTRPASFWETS

[2] = test system: Human gastric cancer cell line MKN 45; test: Tumor growth inhibitory activity against human gastric cancer cell line MKN 45 in nude mice; format: in vivo; settings: oral once a day
Description: Human gastric cancer cell line MKN 45 (available from Riken) was transplanted into nude mice. […] The test compound suspended in 0.5% methylcellulose was orally administered once a day for 9 days.
Only 0.5% methylcellulose was administered to the control group in the same manner as in the test groups. The tumor growth inhibition rate (TGIR) was calculated as follows: The tumor growth inhibition rate (TGIR)=(1−TX/CX)×100 wherein CX represents the volume of tumor at day X for the control group and TX represents the volume of tumor for test compound administration groups, when the tumor volume at the day of the start of the administration was presumed to be 1.

c-Met [3] = target: T1, c-Met; test: Measurement of human c-Met enzyme inhibitory activity (ELISA, Poly Glu:Tyr); format: biochemical; set-up: a part (955 to 1368aa) around human c-Met kinase domain; GST; made in house; host or cells: SF9 insect cells (baculovirus); settings: human c-Met kinase domain (955 to 1368aa), ATP 10 μM
Text: cDNA coding for a part (955 to 1368aa) around human c-Met kinase domain was integrated into a pFastBac vector (Invitrogen) with a GST tag inserted therein, followed by transformation into DH10Bac to give Bacmid DNA which was then introduced into SF9 cells (GIBCO). Infection with a virus liquid was repeated five times, and SF9 cells were then broken, followed by purification using a GSH column to give a c-Met kinase active protein.
Poly Glu: Tyr=4:1 (SIGMA) was coated onto a 96-well immunoplate (442404, NALGE NUNC International K.K.). Kinase buffer (50 mM HEPES (pH 7.5), 25 mM NaCl, 0.01 mM Na3VO4, 0.01% BSA), a test compound, and the kinase protein were added, and the mixture was incubated for 10 min. ATP (10 μM, SIGMA) was then added, and a reaction was allowed to proceed for 10 min. The plate was washed three times with PBST and was reacted with a primary antibody PY-20 (BD-610000, B.D. Bioscience) and a secondary antibody GAM (NA-9310V, Abersham) each at room temperature for one hr. The plate was washed with PBST, color development was then carried out with SUMILON (ML-1120T, Sumitomo Bakelite Co., Ltd.), and phosphorylated tyrosine was quantitatively determined by measuring the absorbance at 450 nm. IC50 was calculated based on a concentration difference curve for the test compound by presuming the absorbance of the wells without the addition of ATP to be 100% inhibition and the absorbance of the wells with the addition of the medium for the test compound and ATP to be 0% inhibition.
Target sequence in this assay (P08581 955-1368): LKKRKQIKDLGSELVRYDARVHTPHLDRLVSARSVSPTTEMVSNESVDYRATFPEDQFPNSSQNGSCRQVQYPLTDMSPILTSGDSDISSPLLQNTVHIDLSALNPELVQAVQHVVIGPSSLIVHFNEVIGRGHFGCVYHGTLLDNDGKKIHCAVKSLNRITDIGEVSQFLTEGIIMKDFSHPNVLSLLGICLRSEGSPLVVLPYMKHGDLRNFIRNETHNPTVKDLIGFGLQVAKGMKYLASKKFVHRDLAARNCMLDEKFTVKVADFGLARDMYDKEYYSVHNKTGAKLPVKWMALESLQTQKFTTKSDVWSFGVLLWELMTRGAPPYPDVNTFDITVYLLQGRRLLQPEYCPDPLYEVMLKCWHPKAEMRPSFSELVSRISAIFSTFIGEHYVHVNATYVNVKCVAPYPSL

KDR = KDR (Homo sapiens, UniProt P35968); test: KDR autophosphorylation inhibitory activity (general statement)
c-Met [4] = target: T1, c-Met; test: c-Met autophosphorylation inhibitory activity (general statement)
Target sequence in this assay (P08581 25-1390): as the sequence (P08581 25-1390) above

Chain of KDR (P35968 20-1356): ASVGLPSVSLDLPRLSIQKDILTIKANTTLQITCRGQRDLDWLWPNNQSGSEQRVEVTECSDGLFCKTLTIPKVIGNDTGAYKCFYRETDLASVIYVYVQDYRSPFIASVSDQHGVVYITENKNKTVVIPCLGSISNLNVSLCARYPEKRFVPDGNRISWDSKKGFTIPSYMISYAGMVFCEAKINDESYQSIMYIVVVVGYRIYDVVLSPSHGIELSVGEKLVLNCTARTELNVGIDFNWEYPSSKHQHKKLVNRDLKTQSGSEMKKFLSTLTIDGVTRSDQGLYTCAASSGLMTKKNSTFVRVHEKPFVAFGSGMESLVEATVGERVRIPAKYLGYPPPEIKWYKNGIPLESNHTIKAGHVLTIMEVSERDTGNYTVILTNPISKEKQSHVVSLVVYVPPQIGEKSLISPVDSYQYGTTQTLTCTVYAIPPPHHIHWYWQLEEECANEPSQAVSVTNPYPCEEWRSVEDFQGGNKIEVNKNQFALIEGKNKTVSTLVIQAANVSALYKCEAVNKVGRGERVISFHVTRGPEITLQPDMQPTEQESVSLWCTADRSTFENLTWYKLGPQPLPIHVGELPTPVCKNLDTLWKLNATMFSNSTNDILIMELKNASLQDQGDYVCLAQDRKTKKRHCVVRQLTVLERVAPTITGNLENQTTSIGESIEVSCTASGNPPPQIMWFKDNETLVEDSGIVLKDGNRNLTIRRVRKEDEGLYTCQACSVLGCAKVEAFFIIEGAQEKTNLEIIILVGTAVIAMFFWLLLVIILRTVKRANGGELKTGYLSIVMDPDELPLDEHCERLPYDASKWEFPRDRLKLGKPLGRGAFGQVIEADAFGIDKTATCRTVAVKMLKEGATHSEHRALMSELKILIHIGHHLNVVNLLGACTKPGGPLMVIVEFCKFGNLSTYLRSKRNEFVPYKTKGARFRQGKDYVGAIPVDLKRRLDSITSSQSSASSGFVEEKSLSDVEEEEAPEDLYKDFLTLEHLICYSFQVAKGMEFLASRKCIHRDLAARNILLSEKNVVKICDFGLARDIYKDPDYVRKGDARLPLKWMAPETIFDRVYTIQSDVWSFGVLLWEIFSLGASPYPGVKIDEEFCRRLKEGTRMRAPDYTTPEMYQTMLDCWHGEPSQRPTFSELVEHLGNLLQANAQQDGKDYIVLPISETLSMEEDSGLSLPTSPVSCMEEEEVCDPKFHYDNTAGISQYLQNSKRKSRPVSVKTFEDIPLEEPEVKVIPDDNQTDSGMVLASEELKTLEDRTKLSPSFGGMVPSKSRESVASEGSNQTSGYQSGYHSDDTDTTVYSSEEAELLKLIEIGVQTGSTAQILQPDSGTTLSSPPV

Row | SMILES | pIC50 (c-Met [1]) | TGIR (tumor growth inhibition rate) ([2]; 10th day) | pIC50 (c-Met [3]) | TGIR (tumor growth inhibition rate) ([2]; 9th day) | KDR autophosphorylation inhibitory activity (KDR) | c-Met autophosphorylation inhibitory activity (c-Met [4])
1 | COc1cc2nccc(Oc3ccc(NC(=O)NC(=O)Cn4ncc5ccccc54)cc3F)c2cc1OC [Example 14, N-4-[(6,7-Dimethoxy-4-quinolyl)oxy]-3-fluorophenyl-N′-[2-(1H-1-indazolyl)acetyl]urea] | 7.65 | 42.6% | 7.90 | – | – | –
2 | COc1cc2nccc(Oc3ccc(NC(=O)NC(=O)Cn4ccc5ccccc54)cc3F)c2cc1OC [Example 16, N-4-[(6,7-Dimethoxy-4-quinolyl)oxy]-3-fluorophenyl-N′-[2-(1H-1-indolyl)acetyl]urea] | 7.44 | – | – | – | – | –
3 | Cn1ccnc1-c1cc2nccc(Oc3ccc(NC(=S)NC(=O)Cc4ccc(F)cc4)cc3Cl)c2s1 [Example 1, N-(3-Chloro-4-{[2-(1-methyl-1H-2-imidazolyl)thieno[3,2-b]pyridin-7-yl]oxy}phenyl)-N-[2-(4-fluorophenyl)-acetyl]thiourea] | 7.48 | – | 8.49 | 63.8% | – | –
4 | COc1cc(Oc2ccnc3cc(OCCCN4CCOCC4)c(OC)cc23)ccc1NC(=S)NC(=O)Cc1ccccc1 [Compound B, N-{2-methoxy-4-[6-methoxy-7-(3-morpholinopropoxy)-4-quinolyl]oxyphenyl}-N′-(2-phenylacetyl)thiourea] | – | – | – | – | low | high
5 | COc1cc(Oc2ccnc3cc(OC)c(OC)cc23)ccc1NC(=S)NC(=O)Cn1ncc2ccccc21 [Example 15, N-4-[(6,7-Dimethoxy-4-quinolyl)oxy]-2-methoxyphenyl-N′-[2-(1 H-1-indazolyl)acetyl]thiourea] | 7.88 | – | 8.02 | – | – | –
